Results from patent publication US20230365576A1, “BRM Targeting Compounds And Associated Methods Of Use” (Prelude Therapeutics Incorporated, priority 2022, published 2023).

Columns and labels:
SMARCA4 = target: T1, SMARCA4 (Homo sapiens, UniProt P51532); assay: SMARCA4 HiBiT degradation assay in HeLa cells; format: cell-based; conditions: 18 hours
T1 construct: SMARCA4-HiBiT knock-in Hela monoclonal cell (CS3023226) were purchased from Promega; host or cells: HeLa (CRISPR HiBiT knock-in monoclonal line, heterozygous)
T1 sequence (P51532 whole entry): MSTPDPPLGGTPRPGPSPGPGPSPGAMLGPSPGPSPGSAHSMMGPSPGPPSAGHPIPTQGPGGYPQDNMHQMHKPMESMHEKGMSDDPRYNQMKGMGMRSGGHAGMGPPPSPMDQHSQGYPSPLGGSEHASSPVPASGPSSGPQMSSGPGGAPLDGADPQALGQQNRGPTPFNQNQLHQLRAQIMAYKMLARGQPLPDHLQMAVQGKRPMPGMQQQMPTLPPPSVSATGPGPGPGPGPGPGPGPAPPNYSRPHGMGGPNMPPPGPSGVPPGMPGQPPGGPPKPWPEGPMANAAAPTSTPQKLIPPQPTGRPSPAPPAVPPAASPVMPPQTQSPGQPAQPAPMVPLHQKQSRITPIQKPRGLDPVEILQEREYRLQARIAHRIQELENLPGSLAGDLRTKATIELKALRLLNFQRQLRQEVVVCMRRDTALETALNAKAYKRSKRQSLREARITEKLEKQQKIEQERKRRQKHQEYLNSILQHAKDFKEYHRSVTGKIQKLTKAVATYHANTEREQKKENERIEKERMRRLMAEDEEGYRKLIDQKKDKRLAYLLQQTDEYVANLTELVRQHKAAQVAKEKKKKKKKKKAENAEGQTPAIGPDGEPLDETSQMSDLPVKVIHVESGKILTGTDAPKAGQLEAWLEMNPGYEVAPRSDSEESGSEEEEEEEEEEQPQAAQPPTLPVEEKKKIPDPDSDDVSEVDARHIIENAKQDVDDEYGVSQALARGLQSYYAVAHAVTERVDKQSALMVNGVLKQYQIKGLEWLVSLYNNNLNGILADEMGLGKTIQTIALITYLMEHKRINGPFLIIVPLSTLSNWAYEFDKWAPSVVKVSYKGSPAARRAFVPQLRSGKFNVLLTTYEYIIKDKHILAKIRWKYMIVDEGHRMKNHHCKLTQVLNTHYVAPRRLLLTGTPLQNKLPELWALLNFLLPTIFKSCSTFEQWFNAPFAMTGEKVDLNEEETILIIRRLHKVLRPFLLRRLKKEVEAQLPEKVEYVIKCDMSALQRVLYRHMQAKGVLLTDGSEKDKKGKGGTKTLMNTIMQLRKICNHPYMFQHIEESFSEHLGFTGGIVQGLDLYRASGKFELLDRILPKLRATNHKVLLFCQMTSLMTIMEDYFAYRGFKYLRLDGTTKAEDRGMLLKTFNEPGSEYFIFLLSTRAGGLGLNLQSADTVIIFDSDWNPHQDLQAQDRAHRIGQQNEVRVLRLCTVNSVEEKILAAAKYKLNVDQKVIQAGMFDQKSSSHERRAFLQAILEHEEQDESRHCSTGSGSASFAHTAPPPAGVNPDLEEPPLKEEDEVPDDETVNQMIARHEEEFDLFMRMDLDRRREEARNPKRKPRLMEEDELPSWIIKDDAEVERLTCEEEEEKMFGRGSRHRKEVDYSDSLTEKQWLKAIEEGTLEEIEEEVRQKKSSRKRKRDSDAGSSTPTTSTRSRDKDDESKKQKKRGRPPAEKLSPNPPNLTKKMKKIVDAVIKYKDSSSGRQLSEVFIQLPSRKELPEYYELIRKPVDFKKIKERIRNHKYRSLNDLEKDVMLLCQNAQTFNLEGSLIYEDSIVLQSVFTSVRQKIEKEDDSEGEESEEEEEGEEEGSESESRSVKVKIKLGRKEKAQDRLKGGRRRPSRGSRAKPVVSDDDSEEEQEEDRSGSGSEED
Method in brief: (§1)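 Degradation measured as HiBiT luminescence (Nano-Glo lytic reagent) after 18 h compound exposure at 37° C. Cells were HeLa clones carrying heterozygous HiBiT tags on SMARCA2 or SMARCA4, 2500 per well; compounds at 3-fold serial dilution from 10 μM.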

SMARCA2 = target: T2, SMARCA2 (Homo sapiens, UniProt P51531); assay: SMARCA2 HiBiT degradation assay in HeLa cells; format: cell-based; conditions: 18 hours; for DC50: read-out: SMARCA2 IC50
T2 construct: SMARCA2-HiBiT knock-in Hela monoclonal cell (CS302366); host or cells: HeLa (CRISPR HiBiT knock-in monoclonal line, heterozygous)
T2 sequence (P51531 whole entry): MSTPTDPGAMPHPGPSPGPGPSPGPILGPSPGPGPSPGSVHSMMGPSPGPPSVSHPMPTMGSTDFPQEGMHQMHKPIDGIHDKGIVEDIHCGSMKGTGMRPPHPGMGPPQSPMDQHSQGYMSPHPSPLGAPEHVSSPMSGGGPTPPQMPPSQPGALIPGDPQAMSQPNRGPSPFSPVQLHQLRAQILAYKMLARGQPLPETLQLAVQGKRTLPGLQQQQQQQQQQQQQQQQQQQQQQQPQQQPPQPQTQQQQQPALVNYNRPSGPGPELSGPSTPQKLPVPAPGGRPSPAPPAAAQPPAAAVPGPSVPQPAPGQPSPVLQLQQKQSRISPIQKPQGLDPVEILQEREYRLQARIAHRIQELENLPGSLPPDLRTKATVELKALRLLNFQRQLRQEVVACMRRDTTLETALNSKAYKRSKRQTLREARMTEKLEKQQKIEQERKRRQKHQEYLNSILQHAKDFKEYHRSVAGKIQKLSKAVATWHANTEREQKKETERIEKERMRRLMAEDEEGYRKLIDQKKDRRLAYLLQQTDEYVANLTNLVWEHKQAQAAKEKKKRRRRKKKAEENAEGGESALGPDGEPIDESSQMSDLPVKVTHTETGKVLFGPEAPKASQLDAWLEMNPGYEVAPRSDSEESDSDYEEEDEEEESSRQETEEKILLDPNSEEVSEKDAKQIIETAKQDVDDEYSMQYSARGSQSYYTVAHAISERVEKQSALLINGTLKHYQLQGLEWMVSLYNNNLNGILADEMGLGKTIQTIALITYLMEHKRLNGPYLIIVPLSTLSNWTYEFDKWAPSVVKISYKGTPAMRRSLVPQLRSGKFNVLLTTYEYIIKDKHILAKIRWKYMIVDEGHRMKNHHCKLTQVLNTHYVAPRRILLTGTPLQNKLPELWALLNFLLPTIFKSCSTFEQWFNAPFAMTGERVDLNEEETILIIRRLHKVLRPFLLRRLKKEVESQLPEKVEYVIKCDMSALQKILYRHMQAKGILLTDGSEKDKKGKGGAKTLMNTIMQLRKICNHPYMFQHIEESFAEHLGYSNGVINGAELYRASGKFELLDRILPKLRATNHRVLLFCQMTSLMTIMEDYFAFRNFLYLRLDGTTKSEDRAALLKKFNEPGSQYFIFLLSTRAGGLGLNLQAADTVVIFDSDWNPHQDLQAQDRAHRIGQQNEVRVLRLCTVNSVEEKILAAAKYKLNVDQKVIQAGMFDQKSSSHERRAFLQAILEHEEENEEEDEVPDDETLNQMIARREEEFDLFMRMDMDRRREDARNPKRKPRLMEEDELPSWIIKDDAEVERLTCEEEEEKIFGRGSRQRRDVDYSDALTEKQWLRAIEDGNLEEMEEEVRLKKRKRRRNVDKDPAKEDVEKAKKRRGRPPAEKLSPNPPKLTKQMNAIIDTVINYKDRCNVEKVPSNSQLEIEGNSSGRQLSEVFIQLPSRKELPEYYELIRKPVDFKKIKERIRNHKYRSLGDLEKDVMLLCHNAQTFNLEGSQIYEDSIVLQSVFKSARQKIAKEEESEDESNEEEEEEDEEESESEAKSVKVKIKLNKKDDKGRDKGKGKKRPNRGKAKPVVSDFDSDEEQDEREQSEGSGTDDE
Method in brief: as §1

SMILES: CCC12CNc3nnc(-c4cccc(F)c4O)cc3N1CCN(C(=O)N1[C@H](C)CN(CC3CCN(c4ccc5c(c4)C(=O)N(C4CCC(=O)NC4=O)C5)CC3)C[C@H]1C)C2 (single isomer, unassigned) [Example 83]
- DC50 (SMARCA4): < 100 nM
- SMARCA4 DMax % (SMARCA4): B (B=50%<Dmax≤75%)
- SMARCA2 DMax % (SMARCA2): A (A=Dmax>75%)
- DC50 (SMARCA2): < 100 nM

SMILES: C[C@@H]1CN(CC2CCN(c3ccc4c(c3)C(=O)N(C3CCC(=O)NC3=O)C4)CC2)C[C@H](C)N1C(=O)N1CCN2c3cc(-c4cccc(F)c4O)nnc3NCC2(C)C1 (single isomer, unassigned) [Example 12]
- DC50 (SMARCA4): < 100 nM
- SMARCA4 DMax % (SMARCA4): A (A=Dmax>75%)
- SMARCA2 DMax % (SMARCA2): A (A=Dmax>75%)
- DC50 (SMARCA2): < 100 nM

SMILES: O=C1CCC(N2Cc3ccc(N4CCN(CC5CCN(C(=O)N6CCN7c8cc(-c9cc(F)cc(F)c9O)nnc8NC[C@H]7C6)CC5)CC4)cc3C2=O)C(=O)N1 (stereo partly drawn) [Example 48, 3-(6-(4-((1-((S)-2-(3,5-difluoro-2-hydroxyphenyl)-6,6a,7,8,9,10-hexahydro-5H-pyrazino[1′,2′:4,5]pyrazino[2,3-c]pyridazine-8-carbonyl)piperidin-4-yl)methyl)piperazin-1-yl)-1-oxoisoindolin-2-yl)piperidine-2,6-dione]
- DC50 (SMARCA4): < 100 nM
- Dmax (SMARCA4; HeLa): < 50%
- DC50 (SMARCA2): < 100 nM
- Dmax (SMARCA2; HeLa): > 75%
